{"source": "patent US5187171A", "about": "(G. D. Searle & Co., priority 1989, dated 1993)", "key": {"[1]": {"target": "T1, NMDA receptor-associated glycine recognition site (\"Glycine B receptor\") (Rattus norvegicus, UniProt P35439)", "T1 construct": "synaptic plasma membranes (SPM) prepared from rat forebrain; from tissue; host or cells: rat forebrain (male Sprague-Dawley, animals from Sasco) synaptic plasma membranes, Triton X-100 washed", "assay": "TCP modulation assay (stimulation of [3H]TCP binding)", "type": "biochemical", "conditions": "basal [3H]TCP binding", "experimental": "[^3 H]TCP binding was performed using Triton X-100 washed synaptic plasma membranes (SPM) prepared from rat forebrain (30-45 day old, male Sprague-Dawley; Sasco, St. Charles, Mo.) as described previously [J. W. Thomas, W. F. Hood, J. B. Monahan, P. C. Contreras and T. L. O'Donohue, Brain Res., 442, 396-398 (1988)]. […] The samples were then filtered through glass fiber filters (Schleicher and Schuell #32) which were pretreated with 0.05% (v/v) polyethylenimine. The filters were washed and the radioactivity quantitated by liquid scintillation spectrometry. […] The EC50 values for the stimulation of [^3 H]TCP binding were determined using a four parameter logistic regression analysis."}, "[2]": {"system": "mentally disturbed patients", "conditions": "500 mg per day, cited from earlier work"}}}
{"smiles": "N[C@@H]1CONC1=O", "note": "[D-cycloserine, 4-amino-3-isoxazolidone]", "values": [{"measurement": "Maximal stimulation of [3H]TCP binding compared with glycine and D-serine", "setting": "[1]", "value": "significantly less than that produced by both glycine and D-serine"}, {"measurement": "Clinical response", "setting": "[2]; mentally disturbed patients", "value": "improvements in depression, insomnia, anexoria or tension were found for some patients"}, {"measurement": "Clinical response of patients suffering from severe neurosis or psychosis", "setting": "[2]", "value": "responded poorly"}]}
